Tests used:
Format in all cases: cell-based
platelets [1] = assay: Acoustic separation of platelets from lymphocytes in blood buffy coat samples pretreated with a platelet activator
Procedure: Blood buffy coat samples from 3 donors (comprising lymphocytes and platelets) were subjected to acoustic energy, generally as described above. Prior to flowing the blood buffy coat samples through a microfluidic separation channel, the blood buffy coat samples were pretreated. Experimental samples were treated with 8 μM adenosine diphosphate (ADP) in buffer and control samples were treated with buffer only to a final dilution of approximately 1:3 buffy coat:buffer (about 10^9 cells/ml). The samples were incubated for 5 min before separation. The samples were flowed at 0.1 ml/min through a single polystyrene microchannel mounted on an oscillator using the methods described herein. The acoustic force displaced larger and more dense cells and platelet cell aggregates toward a center outlet (waste) while side outlets collected the lymphocyte-enriched product, generally as shown in FIG. 15. The products were compared to the input solution using both a hematology analyzer (Sysmex Corporation, Kobe, Hyogo Prefecture, Japan) to count cells and ELISA of the platelet-specific glycoprotein IIb/IIIa.

platelets [2] = assay: Platelet aggregate size produced by ADP; details: 10 μM ADP
platelets [3] = assay: Acoustic separation of platelets from lymphocytes in a blood sample pretreated with a platelet activator; details: adenosine diphosphate 2-50 μM, incubated 10-20 minutes
Procedure: A blood sample comprising lymphocytes and platelets was subjected to acoustic energy, generally as described above. Prior to flowing the blood sample through a microfluidic separation channel, the blood sample was pretreated by diluting with an additive comprising a platelet activator, adenosine diphosphate. Adenosine diphosphate was added at a concentration of 2-50 μM. The samples were incubated for 10-20 minutes before starting the acoustic separation.

## Nc1ncnc2c1ncn2[C@@H]1O[C@H](COP(=O)(O)OP(=O)(O)O)[C@@H](O)[C@H]1O [ADP, adenosine diphosphate]
Platelets [1]; ADP 8 μM
  platelet content by glycoprotein IIb/IIIa assay (ELISA): significantly reduced platelet content
  reduction of platelet count in the product versus control: nearly ten-fold
Platelets [1]; ADP 8 μM in buffer, 5 min incubation, buffy coat from 3 donors, hematology analyzer, buffer control 274% increase
  decrease of platelet count in the product compared to the starting material: 69%
Platelets [1]; ADP 8 μM, depleted from 10%
  hematocrit of product: 4.5%
Platelets [1]; ADP 32 μM versus 8 μM
  platelet depletion on increasing the concentration: did not further improve platelet depletion
Platelets [1]; ADP versus buffer-only controls
  platelet contamination in the collected lymphocytes compared to controls: strongly reduced platelet contamination
Platelets [1]; with or without ADP added, input 41% to output 84%
  increase of lymphocyte purity: 104%
Platelets [1]; with or without ADP added, input purity 41%
  lymphocyte output purity: 84 % WBC
Platelets [2]
  diameter of platelet aggregates: about 10 μm
Platelets [3]
  response of platelets to the acoustic field: responded more strongly to the acoustic field than individual platelets
